Measurements reported in patent publication US4762789A, “Serodiagnostic reagent for entamoeba histolytica” (priority 1986, dated 1988).
Read-outs that look alike come from different tables or passages of the source. Non-standard residues stand in square brackets, D forms with d. Residues, ends and D or L forms follow the SMILES beside them. *: point of attachment. Sta = CC(C)C[C@H](N)[C@@H](O)CC(=O)O; Isovaleryl = CC(C)CC(=O)*

Assays:
neutral thiol proteinase = experiment: Effect of DTT on enzyme activity in assays; type: biochemical, Entamoeba histolytica; settings: 2 mM DTT
Experimental: 2 mM DTT was maintained throughout as it enhanced activity 2-4-fold in assays and prolonged stability of the enzyme during storage. Even so, as much as 25% of the activity was lost per day in storage at -20° C.
All assays were performed in 100 mM Tris/HCl, 2 mM DTT, pH 7.4 unless otherwise noted.

[1] = tested on: culture supernatant proteinase activity (Entamoeba histolytica trophozoites); experiment: Inhibition of culture supernatant proteolytic activity, Z-Arg-Arg-AMC assay; type: biochemical
Experimental: (§1) "Log-phase" trophozoites (72 hours after passage) were washed to remove serum, and incubated in PBS with penicillin/streptomycin for 3 hours at 37° C. Amebae maintained greater than 90% viability as judged by Trypan blue exclusion and the absence of cytosolic alcohol dehydrogenase activity (Vallee 1955) in the PBS after incubation. Amebae were centrifuged, and the resulting supernatant passed through a 0.45 micron filter. This was designated as crude culture supernatant (CS).
The Z-Arg-Arg-AMC assay is based on the fluorescence of the cleaved AMC group at 460 nm when excited at 380 nm (Castillo, et al, 1979). Enzyme samples (5-25 microliters) were added to a 4 micromolar solution of Z-Arg-Arg-AMC in buffer to a total volume of 2 ml. The rate of substrate hydrolysis at room temperature was determined from the rate of increase of fluorescence, monitored on a continuously recording spectrofluorometer (Aminco SPF-500; American Instrument Co., Silver Spring, MD). The scale was calibrated with a stock solution of 1.3 micromolar AMC (Sigma).
(§2) Inhibitors were preincubated with the enzyme at the indicated concentrations (See Table 1) for 20 minutes at ambient temperature; substrate was then added and proteolytic activity assayed against Z-Arg-Arg-AMC. All inhibitors were obtained from Sigma except pepstatin A (Transformation Research, Inc., Farminham, MA) and bovine serum (Biofluids). TLCK was prepared as a stock solution in dimethyl sulfoxide (DMSO). Phenlylmethylsulfonyl fluoride (PMSF), pepstatin A, and 1,10-phenanthroline stock solutions were made up in ethanol. An equal volume of DMSO or ethanol alone was tested with enzynme and inhibition was calculated relative to the appropriate solvent control.

[2] = tested on: lysate and culture supernatant proteolytic activity; type: biochemical, Entamoeba histolytica
Experimental: as §1
For extracts, trophozoites were resuspended in PBS with penicillin/streptomycin and lysed in a nitrogen cavitation bomb (Kontes Glass Co.; Vineland, N.J.) after equilibration at 30 atm (3×10^6N/m^2) for 1 hour at 40° C. After centrifugation, the supernatant of this preparation was passed through a 0.45 micron filter and designated as soluble "lysate".
as §2

[3] = tested on: Mono P-purified enzyme (neutral thiol proteinase); experiment: Inhibition of MonoP purified enzyme, Azocoll assay; type: biochemical, Entamoeba histolytica; settings: for Activity as % of control (without inhibitor), Mono P-purified Enzyme: Azocoll assay; for Effect of inhibitor on proteolytic activity of purified enzyme: at the concentrations tested (Table I)
Experimental: Fractions of peak activity from the anion exchange column were pooled and dialyzed overnight against buffer (25 mM bis-Tris, 2 mM DTT, pH 7.1) and applied to a MonoP chromatofocusing column at a flow rate of 0.25 ml/min. Typically, about 3 ml at 0.5 mg/ml were injected. Protein was eluted at a flow rate of 0.5 ml/min over a pH gradient of 7-5 formed with 10% Polybuffer 74, pH 5. (Polybuffer 74 is the Trademark of Pharmacia Inc., 800 Centennial Avenue, Piscataway, NJ 08854 for an amphoteric chromatofocusing buffer.) The gradient was generated with the GP-250 gradient programmer and continuously monitored with a pH meter and flow cell. Fractions were collected and checked for activity as described above.
(§3) Azocollytic activity was measured by incubation of 3 mg Azocoll with 10-100 microliters of enzyme (1 ml reaction volume) for 3-16 hours at 37° C. The tubes were then vortexed, microfuged, and the amount of degradation determined from the absorbance of the supernatant at 540 nm (A540). Control tubes were incubated without enzyme; bovine trypsin (5 micrograms; Sigma) was used to determine the total available substrate.
as §2, with “All” for “Inhibitors were preincubated with the enzyme at the indicated concentrations (See Table 1) for 20 minutes at ambient temperature; substrate was then added and proteolytic activity assayed against Z-Arg-Arg-AMC. All”

[4] = tested on: culture supernatant proteinase activity (Entamoeba histolytica trophozoites); experiment: Inhibition of culture supernatant proteolytic activity, Azocoll assay; type: biochemical; settings: inhibitor 2 mM
Experimental: as §1, §3
as §2, with “All” for “Inhibitors were preincubated with the enzyme at the indicated concentrations (See Table 1) for 20 minutes at ambient temperature; substrate was then added and proteolytic activity assayed against Z-Arg-Arg-AMC. All”

Plasminogen = Plasminogen activator assay (125I-fibrin plates); type: biochemical; settings: 3 hours; 100 microliters culture supernatant or lysate; urokinase 10 ploug units; less plasminogen-free control
Experimental: Plasminogen activator activity was determined by the method of Unkeless, et al. (1973) as modified by Aggeler, et al. (1981). Briefly, 24-well plates were coated with [^125 I]-labeled fibrinogen, and incubated with calf serum for two hours at 37° C. to convert fibrinogen to fibrin. Plasminogen (280 ng; final concentration, 6 nM) was added in 50 mM Tris/HCl (pH 7.8) with 100 microliters of culture supernatant or amebic lysate or 50 microliters of MonoP-purified enzyme, to a final volume of 0.5 ml. Controls were incubated without plasminogen added. Aliquots of supernatant (50 microliters) from quadruplicate wells were counted in a gamma counter (Auto-Gamma 500; Packard Instrument Corp.; Downer's Grove, IL). Total available fibrin was determined by trypsin digest. Urokinase (10 ploug units, Calbiochem; La Jolla, CA) was assayed for comparison. Results were expressed as the percentage of total available fibrin degraded less the percentage degraded by the corresponding plasminogen-free control.

type I collagen = experiment: Degradation of type I collagen, SDS-PAGE; type: biochemical, bovine; settings: 3.5 hours at 37° C.
Experimental: 40 microgram aliquots of fibronectin (Bethesda Research Laboratories (BRL); Bethesda, MD), laminin (BRL), or type 1 collagen ("Vitrogen 100"), (Vitrogen 100 is the Trademark of Collagen Corp., Palo Alto, CA for a sterile solution of purified bovine dermal type I collagen), diluted to 1 mg/ml in buffer with 150 mM NaCl, were mixed with 40 microliters of MonoP purified enzyme or 10-20 microliters of culture supernatant. Volumes were brought to 80 microliters with 100 mM Tris, pH 7.2, and DTT was added to a final concentration of 2 mM. Samples were incubated for 3.5 hours (fibronectin and collagen) or 20 hours (laminin) at 37° C. along with matched amounts of substrate or enzyme alone as controls. Collagen was also incubated with 0.5 micrograms of TPCK trypsin (trypsin with tosyl-phenylalanine-chloromethyl-ketone to inhibit any contaminating chymotrypsin, (Worthington Biochemical Corp.; Freehold, NJ) to assay for non-specific cleavage.
Reactions were terminated with 2x sample buffer, and analyzed by SDS-PAGE (laminin with 5% and 10% gels; fibronectin with 7% gels; collagen with 10% gels) for evidence of degradation; 80 microliters was loaded into each lane.

[5] = at the concentrations tested (Table I)

For `O[C@H](CS)[C@H](O)CS` (racemic) [DTT, DL-dithiothreitol], the “enhancement of enzyme activity in assays” value (neutral thiol proteinase) was 2-4 -fold.

For `c1cnc2c(c1)ccc1cccnc12` [1,10-phenanthroline], the “Activity as % of control (without inhibitor), Culture Supernatant” value ([1]; inhibitor 2 mM, 20 min) was 100 % of control, the “Effect of inhibitor on proteolytic activity of lysate and culture supernatant” value [2, 5] was “not affected” and the “Activity as % of control (without inhibitor), Mono P-purified Enzyme” value ([3]; inhibitor 2 mM) was 100 % of control.

`CCN1C(=O)C=CC1=O` [N--ethylmaleimide (NEM), N-ethylmaleimide] was tested, and the “Activity as % of control (without inhibitor), Culture Supernatant” value ([1]; inhibitor 5 mM, 20 min preincubation) was 5 % of control, the “Effect of inhibitor on proteolytic activity of lysate and culture supernatant” value [2, 5] was “completely inhibited” and the “Effect of inhibitor on proteolytic activity of purified enzyme” value (shortened to “Effect of inhibitor … of purified enzyme”) [3] was “completely inhibited”. For the same molecule, the “Activity as % of control (without inhibitor), Mono P-purified Enzyme” value ([3]; inhibitor 5 mM) was 0 % of control.

For `O=C(O)CN(CCN(CC(=O)O)CC(=O)O)CC(=O)O` [ethylenediaminetetracetic acid (EDTA), ethylenediaminetetracetic acid], the “Activity as % of control (without inhibitor), Culture Supernatant” value ([1]; inhibitor 10 mM, 20 min) was 100 % of control, the “Effect of inhibitor on proteolytic activity of lysate and culture supernatant” value [2] was “not affected” and the “Activity as % of control (without inhibitor), Mono P-purified Enzyme” value ([3]; inhibitor 10 mM) was 100 % of control.

In the case of `O=C(O)CI` [iodoacetate], the “Activity as % of control (without inhibitor), Culture Supernatant” value ([1]; inhibitor 3 mM, 20 min) is reported as 0 % of control, the “Effect of inhibitor on proteolytic activity of lysate and culture supernatant” value [2] is reported as “completely inhibited” and the “Effect of inhibitor … of purified enzyme” value [3] is reported as “completely inhibited”. For the same molecule, the “Activity as % of control (without inhibitor), Mono P-purified Enzyme” value ([3]; inhibitor 3 mM) was 0 % of control.

With `CC(=O)N[C@@H](CC(C)C)C(=O)N[C@@H](CC(C)C)C(=O)N[C@H](C=O)CCCNC(=N)N` [leupeptin] the “Activity as % of control (without inhibitor), Culture Supernatant” value ([1]; inhibitor 10 microM, 20 min) was 68 % of control, the “Effect of inhibitor … of purified enzyme” value [3] was “completely inhibited” and the “Activity as % of control (without inhibitor), Mono P-purified Enzyme” value ([3]; inhibitor 10 microM) was 16 % of control. The “Activity as % of control (without inhibitor), Mono P-purified Enzyme” value ([3]; inhibitor 50 microM) was 0 % of control.

With `CC(C)CC(=O)N[C@H](C(=O)N[C@H](C(=O)N[C@@H](CC(C)C)[C@@H](O)CC(=O)N[C@@H](C)C(=O)N[C@@H](CC(C)C)[C@@H](O)CC(=O)O)C(C)C)C(C)C` [pepstatin A] (Isovaleryl-VV[Sta]A[Sta]-OH) the “Activity as % of control (without inhibitor), Culture Supernatant” value ([1]; inhibitor 100 microgram/ml, 20 min) was 100 % of control, the “Effect of inhibitor on proteolytic activity of lysate and culture supernatant” value [2, 5] was “not affected” and the “Activity as % of control (without inhibitor), Mono P-purified Enzyme” value ([3]; inhibitor 100 microgram/ml) was 100 % of control.

In the case of `O=S(=O)(F)Cc1ccccc1` [phenylmethylsulfonyl fluoride (PMSF), phenylmethylsulfonyl fluoride], the “Effect of inhibitor on proteolytic activity of lysate and culture supernatant” value [2, 5] is reported as “not affected”, the “Activity as % of control (without inhibitor), Mono P-purified Enzyme” value ([3]; inhibitor 2 mM) is reported as 100 % of control and the “Activity as % of control (without inhibitor), Culture Supernatant” value [4] is reported as 100 % of control.

With `Cc1ccc(S(=O)(=O)N[C@@H](CCCCN)C(=O)CCl)cc1` [tosyl-lysyl-chloromethyl ketone (TLCK), tosyl-lysyl-chloromethyl ketone] the “Activity as % of control (without inhibitor), Culture Supernatant” value ([1]; inhibitor 0.1 mM, 20 min) was 0 % of control, the “Effect of inhibitor on proteolytic activity of lysate and culture supernatant” value [2, 5] was “completely inhibited” and the “Effect of inhibitor … of purified enzyme” value [3] was “completely inhibited”. For the same molecule, the “Activity as % of control (without inhibitor), Mono P-purified Enzyme” value ([3]; inhibitor 0.1 mM) was 0 % of control.

“alpha1 -proteinase inhibitor: protein proteinase inhibitor obtained from Sigma” was tested, and the “Effect of inhibitor … of purified enzyme” value [3] was “completely inhibited”.

urokinase was tested, and the “available fibrin degraded through plasminogen activation” value (Plasminogen) was 38%.

B1: trypsin: TPCK trypsin (Worthington) used to assay non-specific cleavage of collagen (protein, UniProt P00760 24-246, looked up)
Serine protease 1: IVGGYTCGANTVPYQVSLNSGYHFCGGSLINSQWVVSAAHCYKSGIQVRLGEDNINVVEGNEQFISASKSIVHPSYNSNTLNNDIMLIKLKSAASLNSRVASISLPTSCASAGTQCLISGWGNTKSSGTSYPDVLKCLKAPILSDSSCKSAYPGQITSNMFCAGYLEGGKDSCQGDSGGPVVCSGKLQGIVSWGSGCAQKNKPGVYTKVCNYVSWIKQTIASN
modifications: TPCK-treated
notes: TPCK trypsin (Worthington) used to assay non-specific cleavage of collagen
For B1, the “degradation of type I collagen” value (type I collagen) was “lack of non-specific proteolysis”.
